In patent US20220119354A1, “DIAMINO-SUBSTITUTED PYRIDINES AND PYRIMIDINES AS HERBICIDES” (FMC Corporation, priority 2019, published 2022):

Tests used:
Assay type in all cases: in vivo
[1] = system: barnyardgrass (Echinochloa crus-galli); test: Test B flooded paddy test, barnyardgrass; details: Flood, 250 g ai/ha, applied to paddy water, 2-leaf stage, visual evaluation after 13 to 15 d
Procedure, shortened: (§1)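 Pots flooded to 3 cm above the soil when treated, with test compound added straight to the water and the flood maintained. Treated plants were at the 2-leaf stage and stayed 13–15 d in greenhouse. Response versus untreated controls scored visually from 0 (no effect) to 100 (complete control).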

[2] = system: pigweed (Amaranthus retroflexus); test: Test A preemergence, pigweed; details: 0 to 100 scale, 0 is no effect, 100 is complete control
Procedure, shortened: (§2)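 Greenhouse evaluation: treated and untreated pots were held about 10 d, then injury was rated visually from 0 (no effect) to 100 (complete control). Application was preemergence to soil or postemergence to seedlings 2–10 cm tall, using a non-phytotoxic solvent formulation with surfactant.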

[3] = system: corn (Zea mays); test: Test A postemergence, corn; details: 0 to 100 scale; for Plant response rating, Corn: 0 no effect, 100 complete control
Procedure, shortened: as §2

[4] = system: ducksalad (Heteranthera limosa); test: Test B flooded paddy test, ducksalad; details: Flood, 250 g ai/ha, applied to paddy water, 2-leaf stage, visual evaluation after 13 to 15 d
Procedure, shortened: as §1

[5] = system: barnyardgrass (Echinochloa crus-galli); test: Test A postemergence, barnyardgrass; details: 0 to 100 scale; for Plant response rating, Barnyardgrass: 0 no effect, 100 complete control
Procedure, shortened: as §2

[6] = system: kochia (Kochia scoparia); test: Test A preemergence, kochia; details: 0 to 100 scale, 0 is no effect, 100 is complete control
Procedure, shortened: as §2

[7] = system: wheat (Triticum aestivum); test: Test A postemergence, wheat; details: 0 to 100 scale; for Plant response rating, Wheat: 0 no effect, 100 complete control
Procedure, shortened: as §2

[8] = system: blackgrass (Alopecurus myosuroides); test: Test A postemergence, blackgrass; details: 0 to 100 scale; for Plant response rating, Blackgrass: 0 no effect, 100 complete control
Procedure, shortened: as §2

[9] = system: ragweed (common ragweed, Ambrosia elatior); test: Test A postemergence, ragweed; details: 0 to 100 scale; for Plant response rating, Ragweed: 0 no effect, 100 complete control
Procedure, shortened: as §2

[10] = system: pigweed (Amaranthus retroflexus); test: Test A postemergence, pigweed; details: 0 to 100 scale; for Plant response rating, Pigweed: 0 no effect, 100 complete control
Procedure, shortened: as §2

[11] = system: ryegrass, Italian (Lolium multiflorum); test: Test A postemergence, Italian ryegrass; details: 0 to 100 scale; for Plant response rating, Ryegrass, Italian: 0 no effect, 100 complete control
Procedure, shortened: as §2

[12] = system: barnyardgrass (Echinochloa crus-galli); test: Test A preemergence, barnyardgrass; details: 0 to 100 scale, 0 is no effect, 100 is complete control
Procedure, shortened: as §2

[13] = system: rice (Oryza sativa); test: Test B flooded paddy test, rice; details: Flood, 250 g ai/ha, applied to paddy water, 2-leaf stage, visual evaluation after 13 to 15 d
Procedure, shortened: as §1

[14] = system: foxtail, giant (Setaria faberii); test: Test A preemergence, giant foxtail; details: 0 to 100 scale, 0 is no effect, 100 is complete control
Procedure, shortened: as §2

[15] = system: ryegrass, Italian (Lolium multiflorum); test: Test A preemergence, Italian ryegrass; details: 0 to 100 scale, 0 is no effect, 100 is complete control
Procedure, shortened: as §2

[16] = system: sedge, umbrella (small-flower umbrella sedge, Cyperus difformis); test: Test B flooded paddy test, umbrella sedge; details: Flood, 250 g ai/ha, applied to paddy water, 2-leaf stage, visual evaluation after 13 to 15 d
Procedure, shortened: as §1

[17] = system: kochia (Kochia scoparia); test: Test A postemergence, kochia; details: 0 to 100 scale; for Plant response rating, Kochia: 0 no effect, 100 complete control
Procedure, shortened: as §2

[18] = system: foxtail, giant (Setaria faberii); test: Test A postemergence, giant foxtail; details: 0 to 100 scale; for Plant response rating, Foxtail, Giant: 0 no effect, 100 complete control
Procedure, shortened: as §2

[19] = system: ragweed (common ragweed, Ambrosia elatior); test: Test A preemergence, ragweed; details: 0 to 100 scale, 0 is no effect, 100 is complete control
Procedure, shortened: as §2

[20] = system: galium (catchweed bedstraw, Galium aparine); test: Test A postemergence, galium; details: 0 to 100 scale; for Plant response rating, Galium: 0 no effect, 100 complete control
Procedure, shortened: as §2

[21] = 500 g ai/ha, 0 is no effect, 100 is complete control

| Structure (SMILES) | Plant response rating, Barnyardgrass (0 to 100 scale, 0 is no effect, 100 is complete control) [1] | Pigweed plant response rating ([2]; 125 g ai/ha) | Plant response rating, Corn ([3]; 125 g ai/ha) | Plant response rating, Ducksalad (0 to 100 scale, 0 is no effect, 100 is complete control) [4] | Plant response rating, Barnyardgrass ([5]; 125 g ai/ha) | Kochia plant response rating ([6]; 125 g ai/ha) | Plant response rating, Wheat ([7]; 125 g ai/ha) | Plant response rating, Blackgrass ([8]; 125 g ai/ha) | Plant response rating, Ragweed ([9]; 125 g ai/ha) | Plant response rating, Pigweed ([10]; 125 g ai/ha) | Plant response rating, Ryegrass, Italian ([11]; 125 g ai/ha) | Barnyardgrass plant response rating ([12]; 125 g ai/ha) | Plant response rating, Rice (0 to 100 scale, 0 is no effect, 100 is complete control) [13] | Foxtail, Giant plant response rating ([14]; 125 g ai/ha) | Ryegrass, Italian plant response rating ([15]; 125 g ai/ha) | Plant response rating, Sedge, Umbrella (0 to 100 scale, 0 is no effect, 100 is complete control) [16] | Plant response rating, Kochia ([17]; 125 g ai/ha) | Plant response rating, Foxtail, Giant ([18]; 125 g ai/ha) | Ragweed plant response rating ([19]; 125 g ai/ha) | Plant response rating, Galium ([20]; 125 g ai/ha) | also measured |
| --- | --- | --- | --- | --- | --- | --- | --- | --- | --- | --- | --- | --- | --- | --- | --- | --- | --- | --- | --- | --- | --- |
| Cc1cccc2sc([C@@H](C)Nc3ncc(C(F)(F)F)c(N)n3)cc12 [Compound 115] | 90 | 100 | 100 | 65 | 100 | 80 | 20 | 30 | 80 | 100 | 50 | 60 | 0 | 90 | 40 | 95 | 90 | 100 | 80 | 90 | Pigweed plant response rating ([2]; 31 g ai/ha): 90; Plant response rating, Corn ([3]; 31 g ai/ha): 10; Plant response rating, Barnyardgrass ([5]; 31 g ai/ha): 10; Kochia plant response rating ([6]; 31 g ai/ha): 40; Plant response rating, Wheat ([7]; 31 g ai/ha): 0; Plant response rating, Blackgrass ([8]; 31 g ai/ha): 0; Plant response rating, Ragweed ([9]; 31 g ai/ha): 30; Plant response rating, Pigweed ([10]; 31 g ai/ha): 100; Plant response rating, Ryegrass, Italian ([11]; 31 g ai/ha): 30; Barnyardgrass plant response rating ([12]; 31 g ai/ha): 20; Foxtail, Giant plant response rating ([14]; 31 g ai/ha): 30; Ryegrass, Italian plant response rating ([15]; 31 g ai/ha): 20; Plant response rating, Kochia ([17]; 31 g ai/ha): 70; Plant response rating, Foxtail, Giant ([18]; 31 g ai/ha): 60; Ragweed plant response rating ([19]; 31 g ai/ha): 60; Plant response rating, Galium ([20]; 31 g ai/ha): 50 |
| CC(Nc1ncc(C(F)(F)F)c(N)n1)c1coc2cc(F)ccc12 (racemic) [Compound 51] | 0 | 90 | 0 | 0 | 0 | 90 | 0 | 0 | 90 | 100 | 30 | 40 | 0 | 10 | 60 | 0 | 80 | 20 | 100 | 70 | Pigweed plant response rating ([2]; 500 g ai/ha): 100; Corn plant response rating [3, 21]: 10; Barnyardgrass plant response rating [5, 21]: 50; Kochia plant response rating ([6]; 500 g ai/ha): 100; Wheat plant response rating [7, 21]: 30; Blackgrass plant response rating [8, 21]: 10; Ragweed plant response rating [9, 21]: 100; Pigweed plant response rating [10, 21]: 100; Ryegrass, Italian plant response rating [11, 21]: 50; Barnyardgrass plant response rating ([12]; 500 g ai/ha): 100; Foxtail, Giant plant response rating ([14]; 500 g ai/ha): 90; Ryegrass, Italian plant response rating ([15]; 500 g ai/ha): 80; Kochia plant response rating [17, 21]: 90; Foxtail, Giant plant response rating [18, 21]: 50; Ragweed plant response rating ([19]; 500 g ai/ha): 100; Galium plant response rating [20, 21]: 90 |
